Key:
in vitro = conditions: human, mt-2 cells
Description: Cell viability was determined by the metabolism of the tetrazolium dye, XTT, 3,3'-[1-[phenylamino)carbonyl]-3,4-tetrazolium]bis-(4-methoxy-6-nitrobenzene-sulfonic acid(Sigma)(Scudiero et al., Cancer Res. 48:4827-4833 (1988)). In this assay metabolically active cells transform the tetrazolium dye, XTT, to a soluble colored formazan product. Microtiter plates (96 wells) were seeded with 1×10^5 cells/well and graded concentrations of test compounds in RPMI 1640 plus 5% FCS. Cells (MT-2) were allowed to grow at 36° C. in the presence of compounds for 3 days. To each well was added 0.05 ml of 1 mg XTT/ml in phosphate buffered saline (PBS) containing 0.025 mM phenazine methosulfate. Plates were incubated an additional four hours at 36° C. and the A450 was determined. The absorption was proportional to the number of viable cells in the well. The concentration of compound which produced a 50% reduction in the number of viable cells was designated the TC50.
In order to determine how these combinations affect cell viability, a cytotoxicity assay was conducted on combinations of the two compounds over the range 0.3-100 μg/ml and the TC50 s calculated.

[1] = AZT treatment of HIV positive individuals; cited from earlier work
HIV strains = conditions: time of AZT treatment after which resistant strains observed; cited from earlier work

Cc1cn([C@H]2C[C@H](N=[N+]=[N-])[C@@H](CO)O2)c(=O)[nH]c1=O [AZT, 3'-azido-3'-deoxythymidine]
CC50 at 72 h (in vitro): > 100 µg/mL | Toxicity [1]: frequently toxic, causing bone marrow suppression resulting in anemia, leukopenia and thrombocytopenia | AZT-resistant HIV strains observed (HIV strains): six

Reference: patent US5616578A (priority 1993, dated 1997)
